Measured values published in patent US12162876B2, “Indazole kinase inhibitor and use thereof” (Tarapeutics Science Inc., priority 2018, dated 2024).
Where two headings read alike, the source gives them in different places.

What was measured:
TEL-cKIT/T670I-BaF3 [1] = assay: Cell proliferation (CCK-8, 72 h), TEL-cKIT/T670I-BaF3; type: cell-based; conditions: Mus musculus, read-out: GI50 TEL-cKIT/T670I-BaF3
From the text: (§1) In this example, human gastrointestinal stromal tumor cell line GIST-T1 (expressing wild-type C-KIT gene) (purchased from Cosmo Bio Co., Ltd. (Japan)), human gastrointestinal stromal tumor cell line GIST-T1-T670I (expressing C-KIT-T670I mutant gene) (constructed by our laboratory with CRISPR technology), mouse […] BaF3 (purchased from ATCC) were used. In addition, in this Example, mouse Tel-cKit-BaF3 (stably expressing C-KIT wild-type kinase), mouse Tel-cKit/T670I-BaF3 (stably expressing cKIT T670I mutant kinase), mouse Tel-PDGFRα-BaF3 (stably expressing PDGFRα kinase), mouse Tel-PDGFRβ-BaF3 (stably expressing PDGFRβ kinase), mouse Tel-VEGFR2-BaF3 (stably expressing VEGFR2 kinase), mouse Tel-FLT3-BaF3 (stably expressing FLT3 kinase) were also used. The above cell lines were all constructed by our laboratory. The construction method was as follows: the human C-KIT, C-KIT T670I, PDGFRα, PDGFRβ, VEGFR2, FLT3 kinase region sequences were amplified by PCR respectively and inserted into MSCV-Puro vector (purchased from Clontech) with N-terminal TEL fragment and/or NPM fragment and/or TPR fragment respectively, which was stably transferred into mouse BaF3 cells by retroviral method, and IL-3 growth factor was removed, and finally the cell lines in which protein was transferred depending on C-KIT, C-KIT/T670I, PDGFRα, PDGFRβ, VEGFR2, FLT3 were obtained. The GIST-T1-T670I (expressing C-KIT-T670I mutant gene) cell line was constructed by our laboratory. The construction method was as follows: the sgRNA targeting near the T670 site of the KIT gene was designed by the CRISPR design tool of the Zhang Feng Laboratory of the Massachusetts Institute of Technology (URL: crispr.mit.edu) and cloned into pSpCas9(BB)-2A-Puro vector (Addgene, USA); the obtained vector and a single-stranded oligonucleotide with T670I mutation near the T670 site were co-transfected into the cells, and after antibiotic selection, they were diluted and cultured in a single cell in a 96-well plate; the T670 site of the cells was sequenced and verified by the Sanger sequencing method.

TEL-cKIT-BaF3 = assay: Cell proliferation (CCK-8, 72 h), TEL-cKIT-BaF3; type: cell-based; conditions: Mus musculus, BaF3 expressing wild-type C-KIT kinase
From the text: as §1

BaF3 = assay: Cell proliferation (CCK-8, 72 h), parental BaF3; type: cell-based; conditions: Mus musculus, parental BaF3 cells
From the text: as §1

TEL-VEGFR2-BaF3 = assay: Cell proliferation (CCK-8, 72 h), TEL-VEGFR2-BaF3; type: cell-based; conditions: Mus musculus, BaF3 expressing VEGFR2 kinase
From the text: as §1

TEL-PDGFRα-BaF3 = assay: Cell proliferation (CCK-8, 72 h), TEL-PDGFRα-BaF3; type: cell-based; conditions: Mus musculus, BaF3 expressing PDGFRα kinase
From the text: as §1

TEL-PDGFRβ-BaF3 = assay: Cell proliferation (CCK-8, 72 h), TEL-PDGFRβ-BaF3; type: cell-based; conditions: Mus musculus, BaF3 expressing PDGFRβ kinase
From the text: as §1

TEL-FLT3-BaF3 = assay: Cell proliferation (CCK-8, 72 h), TEL-FLT3-BaF3; type: cell-based; conditions: Mus musculus, BaF3 expressing FLT3 kinase
From the text: as §1

TEL-cKIT/T670I-BaF3 [2] = assay: TEL-cKIT/T670I-BaF3 cell tumor transplantation mouse model; type: in vivo
Procedure: (§2) (1) 4-6 weeks old Bal b/c female mice were purchased from Beijing Weitong Lihua Experimental Animal Co., Ltd. and were reared in SPF-level laboratories. Drinking water and litter were sterilized by autoclaving. All operations on mice were performed under sterile conditions.
(§3) (2) On day 0, about 5×10^6 TEL-cKIT/T670I-BaF3 or 5×10^6 GIST-T1-T670I cells were injected subcutaneously on the left back of all mice, respectively.
(§4) (3) For the mouse model of TEL-cKIT/T670I-BaF3, starting from day 6, the corresponding mice were orally administered every day methyl cellulose (HKI) vehicle (5 mice); […]; sunitinib (purchased from MedChemExpress, China) at a dose of 40 mg/kg mouse weight (5 mice). For the mouse model of GIST-T1-T670I, starting from day 15, the corresponding mice were orally administered every day methyl cellulose (HKI) vehicle (5 mice); Compound 9 at a dose of 20 mg/kg, 30 mg/kg, 40 mg/kg (5 mice each); sunitinib at a dose of 40 mg/kg mouse weight (5 mice).
(§5) (4) Starting from day 6 (the mouse model of TEL-cKIT/T670I-BaF3) and day 15 (the mouse model of GIST-T1-T670I), the length/width of the subcutaneous tumors was measured with a vernier caliper every day, the body weight of the mice was recorded every day, and the effect of compound 9 on the body weight of the mice was determined respectively.
(§6) (5) The growth trend of […] tumors was calculated, with the calculation method of tumor volume: length×width×width/2 mm^3.

GIST-T1 = assay: Cell proliferation (CCK-8, 72 h), GIST-T1; type: cell-based; conditions: Homo sapiens, GISTT1, GIST-T1 (wild-type C-KIT gene)
From the text: as §1

GIST-T1-T670I [3] = assay: GIST-T1-T670I cell tumor transplantation mouse model; type: in vivo; conditions: for tumor inhibition rate: 40 mg/kg oral daily
Procedure: as §2, §3, §4, §5, §6

GIST-T1-T670I [4] = assay: Cell proliferation (CCK-8, 72 h), GIST-T1-T670I; type: cell-based; conditions: Homo sapiens, GIST-T1-T670I (C-KIT-T670I mutant, Imatinib-resistant)
From the text: as §1

[5] = BaF3 expressing cKIT T670I mutant kinase, 72 h, CCK-8

For Cc1nc(NC(=O)C2CCNCC2)sc1-c1ccc2c(/C=C/c3ccccn3)n[nH]c2c1 [Compound 14, (E)-N-(4-methyl-5-(3-(2-(pyridin-2-yl)vinyl)-1H-indazol-6-yl)thiazol-2-yl) piperidin-4-carboxamide], the GI50 (TEL-cKIT/T670I-BaF3 [1]; [5]) was 0.085 µM, the GI50 (TEL-cKIT-BaF3) was 0.137 µM and the GI50 (BaF3) was 3.1 µM. It also gave a GI50 (TEL-VEGFR2-BaF3) of 0.042 µM, a GI50 (TEL-PDGFRα-BaF3) of 0.0074 µM and a GI50 (TEL-PDGFRβ-BaF3) of 0.018 µM. For the same molecule, the GI50 (TEL-FLT3-BaF3) was 0.0016 µM.

For CC(=O)Nc1ncc(-c2ccc3c(/C=C/c4ccccn4)n[nH]c3c2)s1 [Compound 5, (E)-N-(5-(3-(2-(pyridin-2-yl)vinyl)-1H-indazol-6-yl)thiazol-2-yl)acetamide], the GI50 (TEL-cKIT/T670I-BaF3 [1]; [5]) was 0.009 µM, the GI50 (TEL-cKIT-BaF3) was 0.425 µM and the GI50 (BaF3) was 2.92 µM. It also gave a GI50 (TEL-VEGFR2-BaF3) of 0.038 µM, a GI50 (TEL-PDGFRα-BaF3) of 0.002 µM and a GI50 (TEL-PDGFRβ-BaF3) of 0.011 µM. The GI50 (TEL-FLT3-BaF3) was < 0.001 µM.

CC(=O)Nc1nc(C)c(-c2ccc3c(/C=C/c4ccccn4)n[nH]c3c2)s1 [Compound 30, (E)-N-(4-methyl-5-(3-(2-(pyridin-2-yl)vinyl)-1H-indazol-6-yl)thiazol-2-yl) acetamide] gave a GI50 (TEL-cKIT/T670I-BaF3 [1]; [5]) of 0.008 µM, a GI50 (TEL-cKIT-BaF3) of 0.047 µM and a GI50 (BaF3) of 1.46 µM. The GI50 (TEL-VEGFR2-BaF3) was 0.012 µM, the GI50 (TEL-PDGFRα-BaF3) was 0.001 µM and the GI50 (TEL-PDGFRβ-BaF3) was 0.001 µM. For the same molecule, the GI50 (TEL-FLT3-BaF3) was 0.0003 µM.

Cc1nc(NC(=O)CN2CCN(C)CC2)sc1-c1ccc2c(/C=C/c3ccccn3)n[nH]c2c1 [Compound 9, (E)-N-(4-methyl-5-(3-(2-(pyridin-2-yl)vinyl)-1H-indazol-6-yl)thiazol-2-yl)-2-(4-methylpiperazin-1-yl)acetamide] was tested, and the GI50 (TEL-cKIT/T670I-BaF3 [1]; BaF3, 72 h) was 0.009 µM, the GI50 (TEL-cKIT-BaF3) was 0.923 µM and the tumor inhibition rate (TEL-cKIT/T670I-BaF3 [2]; 40 mg/kg oral daily, with increasing days of treatment) was ≤ 80%. The tumor inhibition rate (TEL-cKIT/T670I-BaF3 [2]; 100 mg/kg oral daily, day 11 after administration) was 100%, the “effect on the body weight of mice” value (TEL-cKIT/T670I-BaF3 [2]; oral daily) was “no effect” and the GI50 (BaF3) was 1.4 µM. It also gave a GI50 (TEL-VEGFR2-BaF3) of 0.18 µM, a GI50 (GIST-T1) of 0.019 µM and a tumor inhibition rate (GIST-T1-T670I [3]; day 28 after administration) of 84.3%. The tumor inhibition rate (GIST-T1-T670I [3]; with increasing days of treatment) was ≤ 80%, the “effect on the body weight of mice” value (GIST-T1-T670I [3]; oral daily) was “no effect” and the GI50 (GIST-T1-T670I [4]) was 0.039 µM. For the same molecule, the GI50 (TEL-FLT3-BaF3) was 0.001 µM.

Cc1nc(NC(=O)CC2CCNCC2)sc1-c1ccc2c(/C=C/c3ccccn3)n[nH]c2c1 [Compound 11, (E)-N-(4-methyl-5-(3-(2-(pyridin-2-yl)vinyl)-1H-indazol-6-yl)thiazol-2-yl)-2-(piperidin-4-yl)acetamide] gave a GI50 (TEL-cKIT/T670I-BaF3 [1]; [5]) of 0.038 µM, a GI50 (TEL-cKIT-BaF3) of 0.48 µM and a GI50 (BaF3) of 0.98 µM. The GI50 (TEL-VEGFR2-BaF3) was 0.35 µM, the GI50 (TEL-PDGFRα-BaF3) was 0.0013 µM and the GI50 (TEL-PDGFRβ-BaF3) was 0.0039 µM. For the same molecule, the GI50 (TEL-FLT3-BaF3) was 0.048 µM.

Cc1nc(NC(=O)c2cccc(C(F)(F)F)c2)sc1-c1ccc2c(/C=C/c3ccccn3)n[nH]c2c1 [Compound 6, (E)-N-(4-methyl-5-(3-(2-(pyridin-2-yl)vinyl)-1H-indazol-6-yl)thiazol-2-yl)-3-(trifluoromethyl)benzamide] was tested, and the GI50 (TEL-cKIT/T670I-BaF3 [1]; [5]) was 0.012 µM, the GI50 (TEL-cKIT-BaF3) was 0.024 µM and the GI50 (BaF3) was > 10 µM. It also gave a GI50 (TEL-VEGFR2-BaF3) of 0.005 µM, a GI50 (TEL-PDGFRα-BaF3) of 0.001 µM and a GI50 (TEL-PDGFRβ-BaF3) of 0.003 µM. For the same molecule, the GI50 (TEL-FLT3-BaF3) was 0.002 µM.

For Cc1nc(NC(=O)c2ccc(Cl)c(C(F)(F)F)c2)sc1-c1ccc2c(/C=C/c3ccccn3)n[nH]c2c1 [Compound 2, (E)-4-chloro-N-(4-methyl-5-(3-(2-(pyridin-2-yl)vinyl)-1H-indazol-6-yl)thiazol-2-yl)-3-(trifluoromethyl)benzamide], the GI50 (TEL-cKIT/T670I-BaF3 [1]; [5]) was 0.084 µM, the GI50 (TEL-cKIT-BaF3) was 0.135 µM and the GI50 (BaF3) was > 10 µM. It also gave a GI50 (TEL-VEGFR2-BaF3) of 0.04 µM, a GI50 (TEL-PDGFRα-BaF3) of 0.002 µM and a GI50 (TEL-PDGFRβ-BaF3) of 0.013 µM. For the same molecule, the GI50 (TEL-FLT3-BaF3) was 0.004 µM.

With Cc1nc(NC(=O)Cc2cccc3ccccc23)sc1-c1ccc2c(/C=C/c3ccccn3)n[nH]c2c1 [Compound 7, (E)-N-(4-methyl-5-(3-(2-(pyridin-2-yl)vinyl)-1H-indazol-6-yl)thiazol-2-yl)-2-(naphthalene-1-yl)acetamide] the GI50 (TEL-cKIT/T670I-BaF3 [1]; [5]) was 0.094 µM, the GI50 (TEL-cKIT-BaF3) was 0.191 µM and the GI50 (BaF3) was 3.69 µM. It also gave a GI50 (TEL-VEGFR2-BaF3) of 0.015 µM, a GI50 (GIST-T1) of 0.032 µM and a GI50 (TEL-PDGFRα-BaF3) of 0.0029 µM. For the same molecule, the GI50 (GIST-T1-T670I [4]) was 0.065 µM and the GI50 (TEL-FLT3-BaF3) was 0.003 µM.

In the case of Cc1nc(NC(=O)c2ccncc2)sc1-c1ccc2c(/C=C/c3ccccn3)n[nH]c2c1 [Compound 4, (E)-N-(4-methyl-5-(3-(2-(pyridin-2-yl)vinyl)-1H-indazol-6-yl)thiazol-2-yl) isonicotinamide], the GI50 (TEL-cKIT/T670I-BaF3 [1]; [5]) is reported as 0.006 µM, the GI50 (TEL-cKIT-BaF3) is reported as 1.55 µM and the GI50 (BaF3) is reported as > 10 µM. For the same molecule, the GI50 (TEL-VEGFR2-BaF3) was 0.007 µM, the GI50 (TEL-PDGFRα-BaF3) was 0.002 µM and the GI50 (TEL-PDGFRβ-BaF3) was 0.001 µM. It also gave a GI50 (TEL-FLT3-BaF3) of 0.004 µM.

With Cc1nc(NC(=O)c2ccc(CN3CCN(C)CC3)cc2)sc1-c1ccc2c(/C=C/c3ccccn3)n[nH]c2c1 [Compound 1, (E)-N-(4-methyl-5-(3-(2-(pyridin-2-yl)vinyl)-1H-indazol-6-yl)thiazol-2-yl)-4-((4-methylpiperazin-1-yl)methyl)benzamide] the GI50 (TEL-cKIT/T670I-BaF3 [1]; [5]) was 0.003 µM, the GI50 (TEL-cKIT-BaF3) was 0.024 µM and the GI50 (BaF3) was 0.058 µM. It also gave a GI50 (TEL-VEGFR2-BaF3) of 0.016 µM, a GI50 (TEL-PDGFRα-BaF3) of 0.001 µM and a GI50 (TEL-PDGFRβ-BaF3) of 0.003 µM. The GI50 (TEL-FLT3-BaF3) was < 0.001 µM.

For Cc1ccc(NC(=O)c2ccc(CN3CCN(C)CC3)cc2)cc1Nc1nccc(-c2cccnc2)n1 [Imaitnib, Imatinib, reference compound], the GI50 (GIST-T1) was 0.01 µM and the GI50 (GIST-T1-T670I [4]) was > 10 µM.
